Experiments:
[1] = system: CRF1R-mediated Akt phosphorylation; experiment: CRF-induced Akt phosphorylation at Ser473 in COS-7 cells expressing HA-CRF1R; assay type: cell-based, human; details: wortmannin 100 nM, 30 min pretreatment; 100 nM CRF, 5 min
Description: Plasmid pRK5 encoding the carboxyl terminus of βARK that contains its βγ-binding domain (ct-βARK) was kindly provided by Dr. W. Koch (Center for Translational Medicine, Temple University, Philadelphia, PA), which is a scavenger for G protein βγ subunits ([25]). […] Plasmid pUSEamp encoding dominant-negative Akt-K179M (dn-Akt) was from Upstate Biotechnology (Lake Placid, NY).
(§1) COS-7 cells (from the American Type Culture Collection) were cultured at 37°C in a humidified atmosphere of 95% air, 5% CO2, in DMEM supplemented with 10% FBS, 100 μg/ml streptomycin, and 100 units/ml penicillin (COS-7 growth medium). Transient transfections were performed using LipofectAMINE (Life Technologies: Gaithersburg, MD) as described previously ([27]). Cells were seeded at 8 × 10^5 cells/10-cm dish in COS-7 medium and cultured for 3 days before transfection. COS-7 cells were transfected in 5 ml/dish OptiMEM containing 10 μg/ml LipofectAMINE with empty vector, pcDNA3 encoding the HA-CRF1R or the HA-CRF1R-Δ386 mutant. […] After replacing the transfection medium with fresh growth medium, transfected COS-7 cells were cultured for 1 day. Subsequently, cells were re-seeded in 6-well plates and cultured for an additional day prior to the experiment.
The protocols for measuring total and phosphorylated ERK1/2, c-Src, PYK2, Akt, and EGFR have been previously published ([28], [29]). After cells were cultured to 60–70% confluence, they were serum-deprived for 24 h. On the day of the experiment, cells were treated with the indicated ligands and inhibitors. […] After treatment, cells were placed on ice, the media was aspirated, and the cells were washed twice with ice-cold PBS and lysed in 100 μl of Laemmli sample buffer 1X. The lysates were briefly sonicated, heated at 95°C for 5 min, and centrifuged for 5 min at 14,000 rpm. Resulting supernatants were loaded in separate lanes of a 10% SDS-PAGE gels and electrophoresed. Next, Western transfer on to PDVF membranes was completed. The Western blots were then probed with specific antibodies targeting phosphorylated and non-phosphorylated forms of ERK1/2, c-Src, PYK2, Akt, and EGFR for primary immunodetection. […] The labeled bands were quantified using the Quantity One 4.6.3 software program (Bio-Rad).
Figure 7 CRF mediates Akt activation. […] Total cell lysates were separated by SDS-PAGE and analyzed by immunoblotting with anti-p-Akt Ser^473, as described in Materials and Methods. Akt phosphorylation was quantitated by densitometry, and mean values were plotted from three to five independent experiments. […]

[2] = system: EGF-stimulated Akt phosphorylation; experiment: Modulation of EGF-stimulated Akt phosphorylation in COS-7 cells; assay type: cell-based; details: wortmannin 100 nM, 30 min pretreatment; 10 ng/ml EGF, 10 min
Description: as §1, with “Subsequently, cells were re-seeded in 6-well plates and cultured for an additional day prior to the experiment.” left out
The protocols for measuring total and phosphorylated ERK1/2, c-Src, PYK2, Akt, and EGFR have been previously published ([28], [29]). […] The labeled bands were quantified using the Quantity One 4.6.3 software program (Bio-Rad).
Figure 8 Involvement of the PI3K pathway in CRF-stimulated ERK1/2 phosphorylation. […] Total cell lysates were separated by SDS-PAGE and analyzed by immunoblotting with anti-p-Akt Ser^473 (A) or anti-p-ERK1/2 Thr^202/Tyr^204 (A–C), as described in Materials and Methods. Akt and ERK1/2 phosphorylation were quantitated by densitometry, and mean values were plotted from three to five independent experiments. […]

## COC[C@H]1OC(=O)c2coc3c2[C@@]1(C)C1=C(C3=O)[C@@H]2CCC(=O)[C@@]2(C)C[C@H]1OC(C)=O [wortmannin]
[1]
  effect on CRF1R-mediated Akt signaling activation: abolished CRF1R-mediated Akt signaling activation
[2]
  effect on EGF-stimulated Akt phosphorylation: abolished the stimulatory action of EGF on Akt

Reference: article PMC6921279 (Frontiers in Endocrinology, 2019)
